From article PMC10354055, “An optimized Nurr1 agonist provides disease-modifying effects in Parkinson’s disease models” (Nature Communications, 2023)
“And” between values parts separate entries of the source, which are not always exact repeats. Identical values can stand only once.

What was measured:
Nurr1-LBD [1] = biological target: T1, Nurr1-LBD (Homo sapiens, UniProt P43354); experiment: [3H]-CQ radioligand competition binding assay; settings: Fig. 1h
Procedure: Saturation and competition assays were performed as previously described. For saturation assay, 0.2 µM of Nurr1-LBD and 125-10,000 nM of [^3H]-CQ were incubated in binding buffer (20 mM sodium acetate buffer (pH 5.2)) at 4 °C overnight. […] Assay mixtures were applied to GF/B filters (Brandel Inc.) to capture Nurr1-LBD bounded ligands. […] All graphs and IC50 values were generated using the non-linear regression program in GraphPad Prism version 8.0.2.

Nurr1-LBD [2] = biological target: T1, Nurr1-LBD; experiment: TR-FRET competition assay with HCQFluo; assay type: binding; settings: Fig. 1i
Procedure: TR-FRET assay was performed in PPI Terbium (Tb) detection buffer (PerkinElmer) and contained 0.2 µM of Nurr1-LBD, 0.5 µM of fluorescence-labeled hydroxy-CQ (HCQFluo; Proimaging) and serial concentrations of CQ, 4A7C-301 or RA (10^−4–10^6 nM). Rabbit anti-Nurr1 antibody (3 nM; prepared in our lab) and anti-rabbit IgG-Tb (1:400; Cisbio, 61PARTAF) were included in the assay solution as a donor complex. Assay solutions were loaded in a 384-well OptiPlate™ (PerkinElmer). After 2 h incubation in the dark at room temperature, the FRET signal was measured by excitation at 340 nm and emission at 520 nm for fluorescein and 495 nm for Tb using a VICTOR Nivo plate reader (PerkinElmer). Data were fit using the non-linear regression program in GraphPad Prism version 8.0.2.

HeLa cells [3] = experiment: Autophagolysosome (APL) formation assay, mRFP-GFP-LC3, HeLa cells; assay type: cell-based; settings: EBSS, BafA1 10 nM, CQ 20 µM, 4A7C-301 1 µM
Procedure: (§1) Nurr1 transactivity was normalized to β-galactosidase activity.
(§2) HeLa and N27-A cells were transfected with tandem mRFP-GFP-LC3 (Addgene) plasmid using Lipofectamine 2000 (Invitrogen) in 24-well plates. After 24 h, cells were incubated in starvation medium (Earle’s Balanced Salt Solution, EBSS; Lonza) containing bafilomycin A1 (BafA1, 10 nM), CQ (20 µM), or 4A7C-301 (1 µM) for 6 h and then fixed with 4% formaldehyde for fluorescence detection. Images were taken using a KEYENCE microscope and red (mRFP) LC3 dots and yellow (mRFP+GFP) LC3 dots were counted from three independent wells for each treatment group. 10 cells were randomly selected and counted from each well and a total of 30 cells were analyzed for each treatment group in both HeLa and N27-A cells.

N27-A cells [4] = experiment: Autophagolysosome (APL) formation assay, mRFP-GFP-LC3, N27-A cells; assay type: cell-based, rat; settings: Figure 3b; mRFP-GFP-LC3; individual cells (30 per treatment)
Procedure: as §2

HeLa cells [5] = experiment: Lysosomal pH detection, LysoSensor, HeLa cells; assay type: cell-based
Procedure: (§3) Lysosomal pH was detected as previously described. Briefly, after incubation in EBSS containing BafA1 (10 nM), CQ (20 µM), or 4A7C-301 (1 µM) for 6 h, HeLa and N27-A cells were treated with LysoSensor™ Yellow/Blue DND-160 (5 µM; Life Technology) for 45 min, followed by 2 washes in HEPES buffer (Gibco). Fluorescence images at excitation/emission wavelengths of 360/460 nm and 470/525 nm were taken immediately using a 400 nm dichroic mirror (KEYENCE). The ratio of fluorescence intensities (F360/470) were measured and calculated manually using ImageJ for each cell. The average pH from measuring 5 cells from each of three wells for each treatment group in both HeLa and N27-A cells was calculated by fitting the F360/470 values to a plotted pH calibration curve with KCl/NaCl buffered from pH 3.5 to 7.0 using GraphPad Prism (Version 8.0.2).

N27-A cells [6] = experiment: Lysosomal pH detection, LysoSensor, N27-A cells; assay type: cell-based, rat
Procedure: as §3

HeLa cells [7] = experiment: Autophagic flux, Western blot LC3B and p62, HeLa cells; assay type: cell-based; settings: for Relative LC3B-II experession (normalized to β-actin): Supplementary Figure S7f; for Relative p62 experession (normalized to β-actin): Supplementary Figure S7g
Procedure: (§4) Experiments were confirmed by duplicate measurements of the same sample. Quantification of immunoreactive bands was performed using ImageJ software (NIH, Bethesda, MD, USA) and expressed as a relative ratio against β-actin.
(§5) The band intensities were quantified using ImageJ and normalized against β-actin.

N27-A cells [8] = experiment: Autophagic flux, Western blot LC3B and p62, N27-A cells; assay type: cell-based, rat; settings: individual replicates
Procedure: as §4, §5

Nurr1-LBD [9] = biological target: T2, Nurr1-LBD (Mus musculus, UniProt Q06219); experiment: Luciferase reporter assay, Nurr1-LBD, SK-N-BE(2)C cells; assay type: cell-based; settings: for Maximum fold activity / EC50: Nurr1 activation; for Maximum fold activity: Supplementary Table 1
T2 construct: transfected with pCMV-fNurr1, pGAL-Nurr1(LBD), pGAL-Nor1(LBD) or pGAL-Nur77(LBD) and reporter construct; expressed in transfected cells; host or cells: SK-N-BE(2)C (human neuroblastoma), N27-A (rat dopaminergic), MN9D (murine dopaminergic)
Text: as §1

[10] = Supplementary Table 1, values in µM
[11] = Supplementary Table 1, values given in nM

T1 sequence (P43354 360-595 limits assumed, species assumed): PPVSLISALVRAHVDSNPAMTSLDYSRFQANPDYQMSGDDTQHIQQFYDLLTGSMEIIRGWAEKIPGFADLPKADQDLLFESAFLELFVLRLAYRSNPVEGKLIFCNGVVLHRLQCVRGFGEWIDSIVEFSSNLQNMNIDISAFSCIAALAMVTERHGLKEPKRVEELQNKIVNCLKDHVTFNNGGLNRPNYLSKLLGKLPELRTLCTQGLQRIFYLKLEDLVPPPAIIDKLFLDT
T2 sequence (Q06219 360-595 limits assumed): as the sequence (P43354 360-595 limits assumed, species assumed) above

CC1=C(/C=C/C(C)=C/C=C/C(C)=C/C(=O)O)C(C)(C)CCC1 [RA, Retinoic acid]
% of Specific binding (Nurr1-LBD [1]; competitor conc. 0.0001 (µM)): 87.8740% and 90.3786% and 97.0000%
% of Specific binding (Nurr1-LBD [1]; competitor conc. 0.001 (µM)): 101.4488% and 96.8455% and 90.6575%
% of Specific binding (Nurr1-LBD [1]; competitor conc. 0.01 (µM)): 93.0895% and 89.2521% and 94.1409%
% of Specific binding (Nurr1-LBD [1]; competitor conc. 0.1 (µM)): 82.0986% and 95.6235% and 83.0156%
% of Specific binding (Nurr1-LBD [1]; competitor conc. 1 (µM)): 87.3597% and 82.6821% and 79.1883%
% of Specific binding (Nurr1-LBD [1]; competitor conc. 10 (µM)): 63.0000% and 75.1862% and 67.5572%
% of Specific binding (Nurr1-LBD [1]; competitor conc. 100 (µM)): 42.2356% and 49.1037% and 43.9315%
% of Specific binding (Nurr1-LBD [1]; competitor conc. 1000 (µM)): 32.2111% and 35.0331% and 30.1369%
% of Specific binding (Nurr1-LBD [1]; competitor conc. 10000 (µM)): 18.6132% and 23.0315% and 23.7161%
% of Specific binding (Nurr1-LBD [1]; competitor conc. 100000 (µM)): 12.2908% and 10.3348% and 16.3962%
% of Specific binding (Nurr1-LBD [1]; competitor conc. 1000000 (µM)): 8.1147% and 11.0894% and 7.4333%
Interaction [HTRF] (Nurr1-LBD [2]; 0.05 µM): 2835.2000 and 2760.8790 and 2798.0390
Interaction [HTRF] (Nurr1-LBD [2]; 0.1 µM): 2218.7830 and 2060.7720 and 2139.7770
Interaction [HTRF] (Nurr1-LBD [2]; 0.5 µM): 1239.9030 and 1522.7770 and 1381.3400
Interaction [HTRF] (Nurr1-LBD [2]; 1 µM): 1217.7040 and 1012.7510 and 1115.2270
Interaction [HTRF] (Nurr1-LBD [2]; 5 µM): 750.0158 and 977.4576 and 863.7367
Interaction [HTRF] (Nurr1-LBD [2]; 10 µM): 824.6545 and 715.3943 and 770.0244
Interaction [HTRF] (Nurr1-LBD [2]; 50 µM): 734.0843 and 751.1574 and 742.6208
Interaction [HTRF] (Nurr1-LBD [2]; 100 µM): 637.6497 and 793.8474 and 715.7485
Interaction [HTRF] (Nurr1-LBD [2]; 200 µM): 603.5579 and 705.9392 and 654.7485

CO/C1=C\C(C)=C\[C@@H](C)[C@@H](O)[C@@H](C)C/C(C)=C/C=C/[C@H](OC)[C@@H]([C@@H](C)[C@@H](O)[C@H](C)[C@@]2(O)C[C@@H](O)[C@H](C)[C@@H](C(C)C)O2)OC1=O [BafA1, bafilomycin A1]
APL formation / autophagy (in words) (HeLa cells [3]): completely inhibited
LC3 dots/cell, Red LC3 dots (N27-A cells [4]): 1 dots/cell (14×) and 2 dots/cell (6×) and 0 dots/cell (8×) and 5 dots/cell and 3 dots/cell
LC3 dots/cell, Yellow LC3 dots (N27-A cells [4]): 28 dots/cell (2×) and 29 dots/cell (3×) and 21 dots/cell and 37 dots/cell (2×) and 20 dots/cell and 41 dots/cell (2×) and 27 dots/cell (2×) and 31 dots/cell (6×) and 18 dots/cell and 32 dots/cell and 40 dots/cell (2×) and 38 dots/cell and 33 dots/cell and 36 dots/cell and 24 dots/cell and 22 dots/cell and 30 dots/cell and 23 dots/cell
lysosomal pH (in words) (HeLa cells [5]; HeLa, BafA1 10 nM, CQ 20 µM, 4A7C-301 1 µM): significantly increased
Lysosomal pH (HeLa cells [5]; Supplementary Figure S7d, individual replicates): 6.632 and 6.371 and 6.762 and 6.208 and 6.436 and 6.697 and 6.241 and 7.055 and 6.469 and 6.827 and 6.045
Lysosomal pH (N27-A cells [6]; Figure 3d, individual replicates): 6.143 and 6.404 and 6.371 and 6.241 and 6.729 and 6.827 and 6.567 and 6.11 and 6.469 and 6.925 and 6.664 and 6.078 and 6.045
lysosomal pH (in words) (N27-A cells [6]; N27-A, BafA1 10 nM, CQ 20 µM, 4A7C-301 1 µM): significantly increased
autophagic flux (in words) (HeLa cells [7]; HeLa, LC3B-II and p62): failed to terminate
Relative LC3B-II experession (normalized to β-actin) (HeLa cells [7]; time 0h): 0.339 and 0.384 and 0.423
Relative LC3B-II experession (normalized to β-actin) (HeLa cells [7]; time 0.5h): 0.689 and 0.867 and 0.926
Relative LC3B-II experession (normalized to β-actin) (HeLa cells [7]; time 1h): 0.885 and 1.051 and 1.126
Relative LC3B-II experession (normalized to β-actin) (HeLa cells [7]; time 2h): 0.981 and 1.172 and 1.156
Relative LC3B-II experession (normalized to β-actin) (HeLa cells [7]; time 4h): 1.098 and 1.172 and 1.288
Relative p62 experession (normalized to β-actin) (HeLa cells [7]; time 0h): 0.909 and 0.809 and 0.904
Relative p62 experession (normalized to β-actin) (HeLa cells [7]; time 0.5h): 0.781 and 0.847 and 0.974
Relative p62 experession (normalized to β-actin) (HeLa cells [7]; time 1h): 0.754 and 0.822 and 0.940
Relative p62 experession (normalized to β-actin) (HeLa cells [7]; time 2h): 0.804 and 0.850 and 0.987
Relative p62 experession (normalized to β-actin) (HeLa cells [7]; time 4h): 0.978 and 0.992 and 1.169
Relative LC3B-II experession (normalized to β-actin) (N27-A cells [8]; Figure 3f, w/ MPP+, 0h): 0.733 and 0.699 and 0.753
Relative LC3B-II experession (normalized to β-actin) (N27-A cells [8]; Figure 3f, w/ MPP+, 4h): 1.710 and 1.577 and 1.762
Relative LC3B-II experession (normalized to β-actin) (N27-A cells [8]; Figure 3f, w/o MPP+, 0h): 0.546 and 0.525 and 0.431
Relative LC3B-II experession (normalized to β-actin) (N27-A cells [8]; Figure 3f, w/o MPP+, 4h): 1.603 and 1.576 and 1.411
Relative LC3B-II experession (normalized to β-actin) (N27-A cells [8]; Figure 3g, w/ MPP+, 0h): 1.449 and 1.354 and 1.694
Relative LC3B-II experession (normalized to β-actin) (N27-A cells [8]; Figure 3g, w/ MPP+, 4h): 1.439 and 1.341 and 1.659
Relative LC3B-II experession (normalized to β-actin) (N27-A cells [8]; Figure 3g, w/o MPP+, 0h): 1.447 and 1.262 and 1.249
Relative LC3B-II experession (normalized to β-actin) (N27-A cells [8]; Figure 3g, w/o MPP+, 4h): 1.807 and 1.586 and 1.554

Cc1cc(N2CCCCC2)nc(NC2CCCC(Nc3ccnc4cc(Cl)ccc34)C2)n1 (stereo not shown) [4A7C-609]
Maximum fold activity (Nurr1-LBD [9]): 4.83 ± 0.51 fold
EC50 (Nurr1-LBD [9]; [10]): 1.19 ± 0.61 µM

Cc1cc(N2CCSCC2)nc(NC2CCCC(Nc3ccnc4cc(Cl)ccc34)C2)n1 (stereo not shown) [4A7C-606]
Maximum fold activity (Nurr1-LBD [9]): 5.72 ± 0.16 fold
EC50 (Nurr1-LBD [9]; [10]): 1.54 ± 0.36 µM

CCN1CCN(c2cc(Cl)nc(NCCNc3ccnc4cc(Cl)ccc34)n2)CC1 [4A7C-104]
Maximum fold activity (Nurr1-LBD [9]): 2.63 ± 0.58 fold
EC50 (Nurr1-LBD [9]; [11]): 0.316 ± 0.0398 µM
Nurr1 activation (in words) (Nurr1-LBD [9]; Nurr1 reporter assays): better Nurr1 EC50 than 4A7C-103

Cc1cc(NC2CCCC(Nc3ccnc4cc(Cl)ccc34)C2)nc(Cl)n1 (stereo not shown) [4A7C-601]
Maximum fold activity (Nurr1-LBD [9]): 3.81 ± 0.17 fold
EC50 (Nurr1-LBD [9]; [11]): 0.11 ± 0.0271 µM

Clc1ccc2c(NCCN3CCN(c4nccc(-n5ccnc5)n4)CC3)ccnc2c1 [4A7C-509]
Maximum fold activity (Nurr1-LBD [9]): 3.43 ± 0.42 fold
EC50 (Nurr1-LBD [9]; [11]): 0.113 ± 0.0192 µM

Cc1cc(N2CCCC2)nc(NC2CCCC(Nc3ccnc4cc(Cl)ccc34)C2)n1 (stereo not shown) [4A7C-604]
Maximum fold activity (Nurr1-LBD [9]): 4.24 ± 0.45 fold
EC50 (Nurr1-LBD [9]; [10]): 1.03 ± 0.42 µM

Cc1cc(NC2CCCC(Nc3ccnc4cc(Cl)ccc34)C2)nc(N2CCCCC2)n1 (stereo not shown) [4A7C-603]
Maximum fold activity (Nurr1-LBD [9]): 6.84 ± 0.52 fold
EC50 (Nurr1-LBD [9]; [10]): 1.22 ± 0.02 µM
